Data set [1] can be described thus: In vitro human liver microsomal (HLM) stability assay. The class given is in vitro ADME. The conditions noted are these: human liver microsomes 1 mg per mL protein, 1 μM compound, about 37° C.; as compared to the non-isotopically enriched drug. On the procedure:
Liver microsomal stability assays were conducted at 1 mg per mL liver microsome protein with an NADPH-generating system in 2% NaHCO3 (2.2 mM NADPH, 25.6 mM glucose 6-phosphate, 6 units per mL glucose 6-phosphate dehydrogenase and 3.3 mM MgCl2). Test compounds were prepared as solutions in 20% acetonitrile-water and added to the assay mixture (final assay concentration 1 μM) and incubated at about 37° C. Final concentration of acetonitrile in the assay should be <1%. Aliquots (50 μL) were taken out at times 0, 0.25, […], and 1 hours, and diluted with ice cold acetonitrile (200 μL) to stop the reactions. Samples were centrifuged at 12,000 RPM for about 10 min to precipitate proteins. Supernatants were transferred to micro centrifuge tubes and stored for LC/MS/MS analysis of the degradation half-life of the test compounds.
Results of In Vitro Human Liver Microsomal (HLM) Stability Assay—Percent Change in Degradation Half-Life

The conditions of data set [2]: after both one-time and repeated (daily) administration; Verster et al. 2004; cited from earlier work.

Molecules are shown by their SMILES.

Take `O=C(O)/C=C/C(=O)O.[2H]C([2H])(C[C@H]1CCCN1C)O[C@](C)(c1ccccc1)c1ccc(Cl)cc1` [Example 2, (R)-2-[2-[(R)-1-(4-Chlorophenyl)-1-phenylethoxy]ethyl-2,2-d2]-1-methylpyrrolidine fumarate]: in data set [1], the “Percent Change in Degradation Half-Life, 0%-50%” value (“Percent Change … 0%-50%” below) was “+ (0%-50%)”.
As for `O=C(O)/C=C/C(=O)O.[2H]C([2H])([2H])N1CCC[C@@H]1CCO[C@](C)(c1ccccc1)c1ccc(Cl)cc1` [Example 4, (R)-2-[2-[(R)-1-(4-Chlorophenyl)-1-phenylethoxy]ethyl]-1-methyl-d3-pyrrolidine fumarate], the “Percent Change in Degradation Half-Life, −25%-0%” value in data set [1] is reported as “+ (−25%-0%)”.
As for `O=C(O)/C=C/C(=O)O.[2H]C([2H])([2H])N1CCC[C@@H]1C([2H])([2H])C([2H])([2H])O[C@](C)(c1ccccc1)c1ccc(Cl)cc1` [Example 6, (R)-2-[2-[(R)-1-(4-Chlorophenyl)-1-phenylethoxy]ethyl-1,1,2,2-d4]-1-methyl-d3-pyrrolidine fumarate], the “Percent Change … 0%-50%” value in data set [1] is reported as “+ (0%-50%)”.
Take `O=C(O)/C=C/C(=O)O.[2H]C([2H])(O[C@](C)(c1ccccc1)c1ccc(Cl)cc1)C([2H])([2H])[C@H]1CCCN1C` [Example 3, (R)-2-[2-[(R)-1-(4-Chlorophenyl)-1-phenylethoxy]ethyl-2,2-d4]-1-methyl-pyrrolidine fumarate]: in data set [1], the “Percent Change … 0%-50%” value was “+ (0%-50%)”.
Take `CN1CCC[C@@H]1CCO[C@](C)(c1ccccc1)c1ccc(Cl)cc1` [Clemastine, 2-[2-[1-(4-chlorophenyl)-1-phenyl-ethoxy]ethyl]-1-methyl-pyrrolidine]: the “effect on driving performance” value in data set [2] was “significantly impair driving performance”.
Regarding `O=C(O)/C=C/C(=O)O.[2H]C([2H])(C[C@H]1CCCN1C([2H])([2H])[2H])O[C@](C)(c1ccccc1)c1ccc(Cl)cc1` [Example 5, (R)-2-[2-[(R)-1-(4-Chlorophenyl)-1-phenylethoxy]ethyl-2,2-d2]-1-methyl-d3-pyrrolidine fumarate], the “Percent Change in Degradation Half-Life, −25%-0%” value in data set [1] is “+ (−25%-0%)”.

Source of the values: patent US20090203763A1, “SUBSTITUTED BENZHYDRYLETHERS” (AUSPEX PHARMACEUTICALS, INC., priority 2008, published 2009).
